Test [1] concerns EGFR ligands EGF, TGFα, and cetuximab. Briefly: Combinatorial CX7C phage library screening on EGFR ligands; consensus motifs (Table 1). It counts as binding. Conditions: EGFR ligand(s) on which the overlapping consensus motif was selected. The protocol: Phage peptide screening and binding assays were performed as described (Cardó-Vila et al., 2003). A random phage peptide library displaying the insert CX7C (where X is any amino acid and C is a cysteine residue) was used for the screening; phage input was 3×10^9 transducing units (TU). Antibodies, EGF, or TGF-α (R&D Systems) were coated onto microtiter wells as described (Smith and Scott, 1993). […] Wells were washed twice with PBS, blocked with PBS containing 3% BSA for 1 hr at room temperature (RT), and incubated with the phage library in 50 μl PBS containing 1.5% BSA. After 2 hr at RT, wells were washed ten times with PBS, and phage were recovered by bacterial infection as described (Smith and Scott, 1993; Giordano et al., 2001; Cardó-Vila et al., 2003). […] Purification of phage particles and sequencing of phage single-stranded (ss) DNA were performed as described (Arap et al., 1998; Pasqualini et al., 2001). Phage ssDNA from 96 individual clones from each of the second, third, and fourth rounds of selection were prepared, and inserts were sequenced.
Peptide-matching software (Mandava et al., 2004) was used to identify motifs resembling targeted ligands. To identify motifs resembling targeted ligands among the selected sequences, the inventors used a peptide-matching software program based on RELIC, an established bioinformatics server for combinatorial peptide analysis and identification of protein-ligand interaction sites (Mandava et al., 2004), designed and implemented through Perl 5.8.1. The program calculates similarity based on a pre-defined amino acid window size (defined empirically and experimentally) between an affinity-selected peptide sequence and the target protein sequence from N-terminus to C-terminus in one-residue shifts to fit the best alignment. The peptide-protein similarity scores for each amino acid residue were calculated based on an amino acid substitution matrix modified to adjust for rare residue representation. In this case, similarity scores were calculated based on a 5-residue window, with every pentamer motif in each selected peptide compared to each pentamer segment of the protein. Empirical similarity score thresholds were set with at least three identical residues plus one similar residue between the peptide and the protein segment.
A combinatorial approach was used to identify consensus protein-interacting sites within the EGFR. […] Serial enrichment in all selections was observed (FIGS. 1A-C). Bovine serum albumin (BSA), VEGF, and irrelevant IgG served as negative controls.
A comprehensive protein similarity analysis of selected peptides (n=384) was performed to identify sequences resembling the extracellular domain of the EGFR. Overlapping consensus motifs selected in all three EGFR ligands were identified, mapped, and consolidated within the five dominant candidate regions (Cys227-Cys240, Cys283-Asp290, Cys486-Cys491, Cys547-Cys567, Cys604-Lys618; not accounting for the signal peptide, as indicated) within the primary structure of the receptor (FIG. 2A, yellow highlights).

Test [2] has as its system EF43.fgf-4-derived tumors. In words: Treatment of tumor-bearing mice with peptides and peptidomimetics, tumor volume. Conditions: Balb/c mice, EF43.fgf-4 tumors, 750 μg/mouse/dose. Format: in vivo. From the text:
FIGS. 5A-B: CVRAC-targeted phage homes to tumor. (FIG. 5A) Targeting tumors versus control organs. […] An anti-phage antibody was used for staining H&E staining, with the corresponding fluorescence-based immunostaining, are shown in tumors (FIG. 5A). Tumor-bearing mice received CVRAC phage, CVAAC phage, or insertless control phage as indicated. Cohorts of tumor-bearing mice (n=5 mice/group) were used. A representative experiment is shown. Scale bar, 100 μm. (FIG. 5B) Treatment of tumor-bearing mice with peptides and peptidomimetics. Balb/c mice bearing EF43.fgf-4-derived tumors were divided into size-matched cohorts (n=7 mice/group); individual tumor volumes are represented before (black circles) and after (white circles). Peptides and peptidomimetics were administered at 750 μg/mouse/dose for 5 days. Shown are mean tumor volumes±SEM.
Selective phage homing to tumors was evaluated as described (Hajitou et al., 2006; Arap et al., 1998). […] Each cohort of mice (n=3 per experiment) with size-matched tumors received a set of test and control phage clones. After 6 h, tumor-bearing mice were perfused through the heart with 20 ml of PBS containing 4% paraformaldehyde (PFA). […] For experimental therapy, Balb/c mice bearing EF43.fgf-4-derived tumors were established, and tumor volumes were determined as described (Arap et al., 1998; Hajitou et al., 2006; Ciardiello et al., 1999). […]

Test [3] is described as follows: Nuclear magnetic resonance (NMR)-spectroscopy interactions. It counts as binding.
For test [4], the system named is cetuximab. In words: Binding of synthetic peptides to cetuximab (ELISA-based, FIG. 3A, FIG. 4B). Particulars: FIG. 4B (peptides plated at 10 μg/ml). From the text: (§1) BSA served as an additional negative control, and the EGFR, as a positive control. […] Insertless phage served as a negative control. […] Bars represent mean±SEM.
(§2) A representative experiment is depicted. […] Bars represent mean±SEM. […] (FIG. 4C) Effect of the synthetic peptides on HN5 tumor cells. […] Viability in the absence of peptide was set to 100%. […] Bars represent mean±SEM. […] Receptors were immunoprecipitated with antibodies against phosphorylated (p) pEGFR and were immunoblotted with anti-phosphotyrosine IgG.
(§3) The EGFR served as an immobilized positive control, and BSA or control peptides (CVAAC) served as immobilized negative controls.

For test [5], the system named is HN5 tumor cells. Briefly: Inhibition by peptide of the cetuximab-dependent inhibition of proliferation, HN5. It counts as cell-based, human. Particulars: HN5, with cetuximab; 60 μM or 180 μM CVRAC, FIG. 4A. The protocol: as §2
(§4) Tumor cell lines HN5, UMSCC 10A, GEO and EF43.fgf-4 were culture in standard conditions. Viability was assessed by MTT assays (Sigma) as described (Cardó-Vila et al., 2003). […] Samples were read at 570 nm.

Test [6] relates to binding of cetuximab to the EGFR. Briefly: ELISA inhibition of binding of cetuximab to the EGFR by synthetic peptides (FIG. 3B, FIGS. 7A-C). Particulars: for inhibition of binding of cetuximab to the EGFR: ELISA, FIG. 3B; for initial functional screen of consensus motif panel (n=15) with cetuximab: FIGS. 7A-C.
Text: as §1
Similar methodologies have been applied to therapeutic (Binder et al., 2006; Binder et al., 2007; Riemer et al., 2005) or diagnostic (Jaalouk et al., 2007) antibodies in a strategy that could reveal mechanisms of action (Binder et al., 2007), identify biological reagents for immunization (Riemer et al., 2005), or discover unrecognized antigens (Jaalouk et al., 2007).

The test system of test [7] is HN5 tumor cells. Briefly: Cell viability/proliferation, MTT assay, HN5. It counts as cell-based, human. Also on record: cell proliferation / viability: dose or concentration left out as unconfirmed. Particulars: HN5, MTT, 120 h, increasing concentrations, FIG. 4C. The protocol: as §2, §4
Tumor cell lines HN5, UMSCC 10A, GEO and EF43.fgf-4 were maintained in high-glucose DMEM, supplemented with 10% heat-inactivated fetal bovine serum, 20 mM HEPES (pH 7.4), 100 IU/ml penicillin, 100 μg/ml streptomycin, and 4 mM glutamine at 5% CO2 at 37° C. EF43.fgf-4 were grown in G418 as described (Hajitou et al., 2006).

For test [8], the system named is polyclonal anti-CVRAC antibodies. In words: ELISA recognition of peptides by polyclonal anti-CVRAC antibodies (FIG. 4B). Format: binding, rabbit.
Text: as §2
Rabbits were immunized with KLH-conjugated CVRAC and a purified antibody was obtained. […] The capacity of rabbit IgG against CVRAC to recognize CVRAC, D(CARVC), and EGFR was measured by ELISA.
as §3

In test [9] the test system is GEO tumor cells. Briefly: Inhibition by peptide of the cetuximab-dependent inhibition of proliferation, GEO. Particulars: with cetuximab. It counts as cell-based, human. The protocol: as §4
For test [10], the system named is EGFR. In words: EGF-induced EGFR autophosphorylation (immunoprecipitation, anti-phosphotyrosine blot). It counts as cell-based, human. Conditions: HN5 tumor cells, EGF 15 min, FIG. 4E.
Text: as §2

The text below walks through data of patent US20130059793A1, “EGF RECEPTOR MIMICKING PEPTIDES” (BOARD OF REGENTS, THE UNIVERSITY OF TEXAS SYSTEM, priority 2010, published 2013).

Square brackets hold non-standard residues; d marks the D form. Ends that are not written are not given here.

“AQQCSGRCRGKSPSD [synthetic EGFR-mimicking peptide]”: the Selected on result in test [1] is listed as “EGF & TGFα”.

Take “CKDTC [synthetic EGFR-mimicking peptide]”: in test [1], the Selected on entry is “All EGFR ligands”.

For “CLPQAMNIT [synthetic EGFR-mimicking peptide]”, the Selected on entry in [1] is “Cetuximab”.

On to “CPAGVM [synthetic EGFR-mimicking peptide]”, for which the Selected on result in test [1] is “Cetuximab”.

As for CQKCDPSC, in [1], the Selected on result is listed as “Cetuximab & TGFα”.

As to “CRKFRDEATC [synthetic EGFR-mimicking peptide]”, in [1], the Selected on entry was “All EGFR ligands”.

For “CSPEGC (also: cyclic, ring type not given here) [synthetic EGFR-mimicking peptide]”, the Selected on result in [1] is “All EGFR ligands”.

With “CTGPGLEGCPTNGPK [synthetic EGFR-mimicking peptide]”, in test [1], the Selected on result was “All EGFR ligands”.

For the substance “CTGRGPDNCIQ [synthetic EGFR-mimicking peptide]”, the Selected on result in test [1] is listed as “All EGFR ligands”.

On to “CVRAC [synthetic cyclic peptide, EGFR residues 283-287]”, for which the “therapeutic efficacy, tumor growth” value in test [2] was “showed therapeutic efficacy in vivo”. For the same substance, the “interactions by NMR-spectroscopy” value in [3] is reported as “Low-affinity interactions (micromolar range)”. In addition, the “binding of synthetic peptide to cetuximab” value in [4] is on record as “specifically bind to cetuximab”. Further, in [5], the “inhibition of the antibody-dependent inhibition of proliferation” value is listed as “concentration-dependent inhibition”. In [6], the “inhibition of binding of cetuximab to the EGFR” value was “Concentration-dependent inhibition” and the “initial functional screen of consensus motif panel (n=15) with cetuximab” value was “not significantly different”. Moreover, the “cell proliferation / viability” value in [7] was “proliferated much less”. In test [8], the “recognition by polyclonal anti-CVRAC antibodies” value is listed as “recognized”. Besides, the “inhibition of the antibody-dependent inhibition of proliferation” value in test [9] is listed as “concentration-dependent inhibition”.

In the case of “CVRACGAD (not fully specified (bridges); also: cyclic, ring type and places not given here) [synthetic cyclic peptide, EGFR residues 283-290]”, the “binding of synthetic peptide to cetuximab” value in test [4] is “specifically bind to cetuximab”. In test [6], the “inhibition of binding of cetuximab to the EGFR” value is listed as “Concentration-dependent inhibition” and the “initial functional screen of consensus motif panel (n=15) with cetuximab” value is “best concentration-dependent ligand peptide”. Further, the Selected on result in test [1] is reported as “All EGFR ligands”.

“D(CAAVC) ([dC][dA][dA][dV][dC]; cysteine pairing not given here; also: peptidomimetic) [negative control peptidomimetic with a mutation corresponding to EGFR Arg285Ala, reference compound]”: the “EGF-induced tyrosine phosphorylation of the EGFR” value in test [10] is reported as “not”.

For “IIRGRTK [synthetic EGFR-mimicking peptide]”, the Selected on result in test [1] was “EGF & TGFα”.

In the case of “IQCAHYIDGPHC [synthetic EGFR-mimicking peptide]”, the Selected on entry in [1] is listed as “All EGFR ligands”.

With “PNGSCW [synthetic EGFR-mimicking peptide]”, the Selected on result in test [1] is “Cetuximab”.

Turning to “QRNYDLSFL [synthetic EGFR-mimicking peptide]”, in [1], the Selected on result was “EGF & TGFα”.

“THTPPLDPQEL [synthetic EGFR-mimicking peptide]”: the Selected on entry in test [1] is on record as “EGF & TGFα”.
